Key:
[1] = molecular target: T1, catalytic domain (JH1) of JAK2 protein (Homo sapiens, UniProt O60674); experiment: JAK2 (JH1) Enzymatic Assay at ATP=Km (30 μM), TR-FRET; format: biochemical; details: 30 μM ATP (=Km), 60 min at 25° C., read-out: V617F ENZ 30 μM
T1 construct: phosphorylated on the tyrosine residue by catalytic domain (JH1) of JAK2 protein; purchased BPS 40450
Protocol: Example A. JAK2 (JH1) Enzymatic Assay at ATP=Km (30 μM)
Inhibitor potency was determined in TR-FRET assay, which measures HTRF signal generated as a result of Eu-labeled anti-phosphotyrosine antibody binding to Biotin-labeled peptide, phosphorylated on the tyrosine residue by catalytic domain (JH1) of JAK2 protein in the presence of ATP-Mg and Allophycocyanin-streptavidin (APC-SA). JH1 domain of JAK2 protein was purchased from BPS (#40450), Eu-W1204-labeled Anti-Phosphotyrosine Antibody (PY-20) and SureLight Allophycocyanin-streptavidin were purchased from PerkinElmer (#AD0067 and #AD0201). Peptide Biot-EQEDEPEGDYFEWLEES-amide (SEQ ID NO.: 1) was purchased from Quality Controlled Biochemicals, MA (Q307-166). Assay buffer consisted of 50 mM Tris, pH=7.5, 10 mM MgCl2, 0.01% Brij-35, 0.1% BSA, 1 mM EGTA, 5% Glycerol and 5 mM DTT. To assess the inhibition of the enzymatic activity, compound was serially diluted in DMSO and a volume of 0.1 μL was transferred to the wells of a black regular volume 384-well plate (Greiner #781076) using Echo Liquid Handler (Labcyte Inc.). Positive and Negative control wells contained 0.1 μL of DMSO.
Enzyme (catalytic domain JH1 of JAK2) was diluted in assay buffer, and the Multidrop Combi liquid handler (Thermo Scientific) was used to dispense 10 μL to each well (except positive control wells, to which 10 μL of assay buffer were dispensed instead of protein).
Plate was centrifuged and reaction was started by addition of 10 μL of substrate solution containing biotinylated peptide and ATP to all wells. Plate was again centrifuged and enzymatic reaction was allowed to proceed for 60 min. at 25° C. Final concentrations in the assay were as follows: 0.02 nM protein, 30 uM ATP, 0.5 uM biotinylated peptide. Reaction was stopped by addition of 10 μL of solution, containing 45 mM EDTA, 144 nM APC/225 nM Streptavidin, and 4.5 nM Eu-Ab in detection buffer: 50 mM Tris, pH=7.8, 150 mM NaCl, 0.5 mg/ml BSA.
Plate was centrifuged and incubated for 30 min. at room temperature. HTRF signal was measured on PHERAstar plate reader instrument (BMG Labtech) with excitation at 337 nm and emissions at 620 nm and 665 nm. Data analysis tools integrated in Genedata Screener software were used to analyze the results. Raw data was normalized to percent of vehicle (DMSO) Negative control, after subtracting no-enzyme Positive inhibitor control. The IC50 values were derived by fitting the data to a four parameter logistic equation producing a sigmoidal dose-response curve using the following equation: Y=Bottom+(Top−Bottom)/(1+10^((Log IC50−X)*Hill slope)) where X is the logarithm of inhibitor concentration and Y is the response.

[2] = molecular target: T2, pseudo-kinase domain (JH2) of human V617F mutant JAK2 (Homo sapiens, UniProt O60674, F794H/V617F/W659A/W777A); experiment: JAK2 LanthaScreen JH2-V617F Binding Assay; details: 50 nM Fluorescent JAK2-JH2 Tracer, 1 hour at 25° C., read-out: JH2 BIND V617F
T2 construct: pseudo-kinase domain (JH2, amino-acids 536-812 with 3 surface mutations W659A, W777A, F794H); purchased BPS Bioscience 79498; host or cells: baculovirus expression system
Protocol: Example B. JAK2 LanthaScreen JH2-V617F Binding Assay
JAK2 JH2-V617F binding assay utilizes pseudo-kinase domain (JH2, amino-acids 536-812 with 3 surface mutations W659A, W777A, F794H) of human V617F mutant JAK2 expressed as C-terminal His-Avi-tagged, biotinylated protein in a baculovirus expression system (BPS Bioscience, Catalog #79498). The assay was conducted in black 384-well polystyrene plates in a final reaction volume of 20 μL. JAK2 JH2-V617F (0.26 nM) was incubated with compounds (100 nL serially diluted in DMSO) in the presence of 50 nM Fluorescent JAK2-JH2 Tracer (MedChem Express Catalog #HY-102055) and 0.25 nM Streptavidin-Tb cryptate (Cisbio Part #610SATLB) in assay buffer (50 mM Tris, pH=7.5, 10 mM MgCl2, 0.01% Brij-35, 0.1% BSA, 1 mM EGTA, 5% Glycerol and 5 mM DTT). Non-specific binding was accessed in the presence of 2 mM ATP. After incubation for 1 hour at 25° C., LanthaScreen signals were read on a PHERAstar FS plate reader (BMG LABTECH). Data was analyzed with IDBS XLfit and GraphPad Prism 5.0 software using a four parameter dose response curve to determine IC50 for each compound.

T2 sequence (O60674 536-812 V617F/W659A/W777A/F794H): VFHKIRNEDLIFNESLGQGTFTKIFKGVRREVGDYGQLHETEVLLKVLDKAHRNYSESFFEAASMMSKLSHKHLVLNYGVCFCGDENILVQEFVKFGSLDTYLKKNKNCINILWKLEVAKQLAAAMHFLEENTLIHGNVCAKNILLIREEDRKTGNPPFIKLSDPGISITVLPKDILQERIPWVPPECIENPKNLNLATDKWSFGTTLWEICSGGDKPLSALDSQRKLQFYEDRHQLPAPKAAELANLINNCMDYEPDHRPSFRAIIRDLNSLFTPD
T1 sequence (O60674 849-1124 limits assumed): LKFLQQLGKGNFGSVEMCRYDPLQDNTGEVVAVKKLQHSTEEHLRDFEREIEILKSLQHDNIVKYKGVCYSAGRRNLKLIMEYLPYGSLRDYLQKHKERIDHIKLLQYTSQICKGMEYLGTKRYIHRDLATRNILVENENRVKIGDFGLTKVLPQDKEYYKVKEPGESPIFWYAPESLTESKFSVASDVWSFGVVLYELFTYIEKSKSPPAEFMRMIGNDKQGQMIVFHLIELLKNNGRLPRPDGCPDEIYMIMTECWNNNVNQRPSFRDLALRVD

| SMILES | IC50 [1] | IC50 [2] |
| --- | --- | --- |
| COC(=O)c1cccc(CN2CC(n3cc(-c4cccc(-c5cnc(NC(C)=O)c6cnc(NC(=O)C7CC7)cc56)c4OC)cn3)C2)n1 [Example 22, Methyl 6-((3-(4-(3-(1-acetamido-6-(cyclopropanecarboxamido)-2,7-naphthyridin-4-yl)-2-methoxyphenyl)-1H-pyrazol-1-yl)azetidin-1-yl)methyl)picolinate] | > 1 µM | ≤ 0.01 µM |
| CNc1ncc(-c2cccc(-c3cnn(C4CN(Cc5cccc(C(F)F)n5)C4)c3)c2OC)c2cc(NC(=O)C3CC3)ncc12 [Example 7, N-(5-(3-(1-(1-((6-(Difluoromethyl)pyridin-2-yl)methyl)azetidin-3-yl)-1H-pyrazol-4-yl)-2-methoxyphenyl)-8-(methylamino)-2,7-naphthyridin-3-yl)cyclopropanecarboxamide] | > 1 µM | ≤ 0.01 µM |
| COc1c(-c2cnn(C3CN(Cc4cccc(C(=O)N(C)C)n4)C3)c2)cccc1-c1cnc(N)c2cnc(NC(=O)C3CC3)cc12 [Example 16, 6-((3-(4-(3-(1-Amino-6-(cyclopropanecarboxamido)-2,7-naphthyridin-4-yl)-2-methoxyphenyl)-1H-pyrazol-1-yl)azetidin-1-yl)methyl)-N,N-dimethylpicolinamide] | 0.01 to 0.1 µM | ≤ 0.01 µM |
| CNc1ncc(-c2cccc(-c3cnn(C4CN(CC56CCCC(C(=O)N(C)C)(C5)C6)C4)c3)c2OC)c2cc(NC(=O)C3CC3)ncc12 [Example 24, 5-((3-(4-(3-(6-(Cyclopropanecarboxamido)-1-(methylamino)-2,7-naphthyridin-4-yl)-2-methoxyphenyl)-1H-pyrazol-1-yl)azetidin-1-yl)methyl)-N,N-dimethylbicyclo[3.1.1]heptane-1-carboxamide] | > 1 µM | 0.01 to 0.1 µM |
| CNc1ncc(-c2cccc(-c3cnn(C4CN(Cc5csc(C(=O)N(C)CC(F)(F)F)n5)C4)c3)c2OC)c2cc(NC(=O)C3CC3)ncc12 [Example 5, 4-((3-(4-(3-(6-(Cyclopropane-carboxamido)-1-(methylamino)-2,7-naphthyridin-4-yl)-2-methoxyphenyl)-1H-pyrazol-1-yl)azetidin-1-yl)methyl)-N-methyl-N-(2,2,2-trifluoroethyl) thiazole-2-carboxamide] | > 1 µM | 0.01 to 0.1 µM |
| COc1c(-c2cnn(C3CN(Cc4cccc(C(=O)N5CCC(F)(F)C5)n4)C3)c2)cccc1-c1cnc(N)c2cnc(NC(=O)C3CC3)cc12 [Example 19, N-(8-amino-5-(3-(1-(1-((6-(3,3-difluoro-pyrrolidine-1-carbonyl)pyridin-2-yl)methyl)azetidin-3-yl)-1H-pyrazol-4-yl)-2-methoxy-phenyl)-2,7-naphthyridin-3-yl)cyclopropane-carboxamide] | 0.01 to 0.1 µM | ≤ 0.01 µM |
| CNc1ncc(-c2cccc(-c3cnn(C4CN(C(=O)c5cccc(C(=O)N(C)C)n5)C4)c3)c2OC)c2cc(NC(=O)C3CC3)ncc12 [Example 8, 6-(3-(4-(3-(6-(Cyclopropanecarboxamido)-1-(methylamino)-2,7-naphthyridin-4-yl)-2-methoxyphenyl)-1H-pyrazol-1-yl)azetidine-1-carbonyl)-N,N-dimethylpicolinamide] | > 1 µM | ≤ 0.01 µM |
| CNc1ncc(-c2cccc(-c3cnn(C4CN(Cc5cccc(C(=O)N(C)C)n5)C4)c3)c2OC)c2cc(NC(=O)C3CC3)ncc12 [Example 1, 6-((3-(4-(3-(6-(Cyclopropanecarboxamido)-1-(methylamino)-2,7-naphthyridin-4-yl)-2-methoxyphenyl)-1H-pyrazol-1-yl)azetidin-1-yl)methyl)-N,N-dimethylpicolinamide] | > 1 µM | ≤ 0.01 µM |
| CNc1ncc(-c2cccc(-c3cnn(C4CN(Cc5cccc(C(=O)N(C)CC(F)(F)F)n5)C4)c3)c2OC)c2cc(NC(=O)C3CC3)ncc12 [Example 3, 6-((3-(4-(3-(6-(Cyclopropane-carboxamido)-1-(methylamino)-2,7-naphthyridin-4-yl)-2-methoxyphenyl)-1H-pyrazol-1-yl)azetidin-1-yl)methyl)-N-methyl-N-(2,2,2-trifluoroethyl) picolinamide] | > 1 µM | ≤ 0.01 µM |
